Here are results for one compound from patent US12479823B2, “Compound for use in retinal diseases” (ZHUHAI UNITED LABORATORIES CO., LTD., priority 2018, dated 2025).

Like-named read-outs stand apart in the source and are kept apart here.

A short description of series [1]: In vitro aldehyde capture capacity test (complexing with nonanal, HPLC at 254 nm). As for the experimental part:
Objective: dry eye disease is caused by inflammation in eyes, wherein the inflammation may produce aldehydes that will accelerate the inflammation symptoms and worsen the dry eye disease if not eliminated in time. In the experiment, a better compound was selected according to the complexing capacity of the drug and aldehydes in vivo by simulating the in vivo environment.
Procedures: Sulfobutyl-B-cyclodextrin (310 mg) was dissolved in a phosphate buffer (1.25 mL) to prepare a solution.
Nonanal (5.0 mg, 32 μmol, 1.0 eq) and triolein (300 mg) were added to a reaction flask at room temperature, after addition of the prepared solution described above, linoleic acid (300 mg) was added, and finally a dimethyl sulfoxide (0.15 ml) solution containing the compound (32 μmol, 1.0 eq) of the present disclosure was added; the reaction solution was reacted at 20-23° C.
The reaction solution was reacted under stirring for 10 min, 100 min, 200 min, and 300 min respectively, and sampled for high performance liquid chromatography after the solution was stratified after standing for 2 min.
Sampling method: 25 μl of an upper emulsified layer and 50 μl of a lower aqueous phase were sampled by a pipette, and samples were diluted with 1 mL of methanol.
The ultraviolet absorption of the nonanal was weak at 254 nm, so the nonanal had little overall effect on the content of complexed products. Therefore, the percentage contents of complexes at 254 nm under high performance liquid chromatography were compared to observe aldehyde capture and complexing capacities, as shown in FIG. 1 and Table 1:
Taking The compound 7 as an example, after 300 min of reaction, the analytical method for HPLC was XBRIGE 2.5 μm, 3.0*100 mm 5-80CD_XBEH_12 min_0.8.1 cm;
Retention time 6.689 min, 6.787 min, 6.966 min, and 7.102 min were absorption peaks of products complexed with monomolecular aldehyde;
Retention time 8.905 min, 9.010 min, and 9.075 min were absorption peaks of products complexed with bimolecular aldehyde.

Series [2] can be described thus: Corneal and plasma drug concentration after eye drops in rats. The format is in vivo. The protocol: Objective: To Study the Ratio of Corneal to Plasma Drug Concentration After Eye Drops in Rats
Experimental Materials: Male SD Rats, 200-300 g, 7-9 weeks old, Shanghai Lingchang
Experimental procedures: The candidate compound was prepared as a clear solution, and administered to SD rats by eye drops. The vehicle for eye drops was 10% hydroxypropyl β-cyclodextrin aqueous solution, and the drug concentration in the eye drops was 5 mg/mL. Corneal and whole blood samples were collected at 1 and 4 hours, respectively. The corneal samples was homogenized in 15 mM phosphate buffer (PBS): MeoH (2:1, v: v) buffer, the whole blood samples were centrifuged at 3000 r for 10 min, and the supernatant plasma samples were separated. 20 μL of the plasma samples and homogenate samples were mixed with 400 μL of acetonitrile precipitated proteins containing an internal standard, respectively, and 2 μL of the supernatant was injected by centrifugation. The plasma concentrations were quantified by LC-MS/MS analysis; the drug concentrations in the cornea and plasma were measured respectively according to different time points, and the ratio of corneal/plasma concentrations was calculated.

For `CC(C)(O)c1ccc(-c2cnc(C(C)(C)O)c(N)c2)cc1N` [Compound 3], the “percentage content of complexed products at 254 nm” value in series [1] (Time 10 min) turned out to be 3.265%; in series [1] (Time 100 min) it was 10.569%; in series [1] (Time 200 min) it was 17.191%; in series [1] (Time 300 min) it was 22.182%. The “Area under the curve AUC” value in series [1] (nonanal 1.0 eq, compound 1.0 eq, 20-23° C., 10-300 min, HPLC 254 nm) amounted to 3979 min. Conversion. For the same compound, the “Slope (linear equation of percentage content of complexed products vs time)” value in series [1] (nonanal 1.0 eq, compound 1.0 eq, 20-23° C., 10-300 min, HPLC 254 nm, in %/min) was found to be 0.0652. Moreover, in series [2] (SD rats, eye drops, result in words), the “entry into the cornea by eye drops” value was “could enter the cornea by eye drops”. Further, the concentration at 1 h is 1800 nM in series [2] (male, Sprague-Dawley (SD), rat, cornea, topical, eye drops 5 mg/mL, 1 h, read-out: Corneal Concentration) and 162 nM in series [2] (male, Sprague-Dawley (SD), rat, plasma, topical, eye drops 5 mg/mL, 1 h, read-out: Plasma Concentration). Besides, the concentration at 4 h in series [2] (male, Sprague-Dawley (SD), rat, cornea, topical, eye drops 5 mg/mL, 4 h, read-out: Corneal Concentration) is 581 nM; in series [2] (male, Sprague-Dawley (SD), rat, plasma, topical, eye drops 5 mg/mL, 4 h, read-out: Plasma Concentration), 43.8 nM. Further, in series [2] (male, Sprague-Dawley (SD), rat, cornea/plasma, topical, 5 mg/mL, eye drops, statement in the conclusion, no time point, read-out: ratio of cornea/plasma concentrations), the Kp is above 10. Moreover, the Kp at 1 h in series [2] (male, Sprague-Dawley (SD), rat, cornea/plasma, topical, eye drops 5 mg/mL, 1 h, read-out: Corneal Concentration/Plasma Concentration C/P ratio) is 14.3. Also, the Kp at 4 h in series [2] (male, Sprague-Dawley (SD), rat, cornea/plasma, topical, eye drops 5 mg/mL, 4 h, read-out: Corneal Concentration/Plasma Concentration C/P ratio) worked out at 16.6.
